# From patent US10829528B2, “Therapeutic agents for neurological and psychiatric disorders” (VIB VZW, priority 2016, dated 2020)
# Where no end group is shown, it is not given here.
# Assays:
# [1] = tested on: Schaffer collateral (SC) synapses in mouse hippocampus; assay: fEPSP field recordings at Schaffer collateral synapses in hippocampal slices; assay type: cell-based
# Experimental: We assessed the effect of sAPPα on the synaptic properties of Schaffer collateral (SC) synapses in mouse hippocampus. […] As change in probability of neurotransmitter release inversely correlates with a change in short-term facilitation, we applied a burst of 5 stimuli at 3 different frequencies (20, 50, and 100 Hz) to induce short-term facilitation at the SC. […] Preincubation with the GABABR antagonist CGP54626 (CGP, 10 μM) for 20 min before the incubation with sAPPα blocked its effects on the peak amplitude of the fESPS and the input/output slopes (FIG. 10f-g). Accordingly, CGP occluded sAPPα-induced augmentation of short-term facilitation at 20, 50, and 100 Hz burst frequencies (FIG. 10h-j).
# On the day of recording the brain of a 2-month-old Balb/c male mouse was quickly removed and 400 μm-thick horizontal slices were prepared in an ice-cold oxygenated buffer containing (in mM): sucrose, 182; KCl, 2.5; MgSO4, 2; NaH2PO4, 1.25; NaHCO3, 25; CaCl2), 0.8; MgCl2, 5; glucose, 25; ascorbate, 1; HEPES, 20. The slicing procedure was performed using a Leica VT1200 vibrating microtome. Slices were then transferred to a submerged recovery chamber at room temperature containing oxygenated (95% 02 and 5% C02) storage artificial cerebrospinal fluid (ACSF) for 30 min before the incubations (see below). The storage ACSF contained, in mM: NaCl, 100; KCl, 2.5; MgSO4, 2; NaH2PO4, 1.25; NaHCO3, 25; CaCl2), 1.2; MgCl2, 3; glucose, 20; ascorbate, 1; sodium pyruvate,3 and HEPES, 20. The slices were incubated in the incubation chambers perfused with oxygenated storage ACSF containing the experimental agents for 90 min before performing field recordings: In the incubation chamber, control slices were perfused with normal storage ACSF while sAPPα slices were perfused with storage ACSF containing 1 μM sAPPα. CGP slices were perfused with storage ACSF containing 10 μM CGP54626 (Tocris). CGP+sAPPα slices were preincubated in the chamber perfused with ACSF+CGP before being transferred into the chamber perfused with storage ACSF implemented with 10 μM CGP54626+1 μM sAPPα. All recordings were performed at 32-33° C. in a recording chamber perfused with ACSF (4 ml/min) on the stage of an Olympus BX51WI microscope equipped with IR optics and oblique illumination. Recording ACSF contains, in mM: NaCl, 129; KCl, 2.5; CaCl2), 1.2; MgCl2, 1.2; NaHCO3, 25; NaH2PO4, 1.25; glucose, 15. Stimulation of the Schaffer-collateral was delivered through a glass suction electrode (10-20 μm tip) filled with ACSF. fEPSPs were recorded using a glass pipette containing ACSF (1-2 MΩ) from proximal synapses in the CA1 stratum radiatum. Field recording experiments were analyzed using Clampfit.
# [2] = tested on: cultured hippocampal neurons; assay: FM1-43 dye labeling of presynaptic vesicle recycling; assay type: cell-based, mouse; conditions: 1 μM sAPPα in the presence of CGP
# Experimental: We assessed the effect of sAPPα on synaptic vesicle recycling (ref6) using the activity-dependent dye FM1-43. We measured density (D) and intensity (ΔF) of FM1-43 uptake in presynaptic vesicles turned over by stimulation of 30 action potentials (APs) at a rate of 1 Hz in cultured hippocampal neurons.
# The experiments were performed in mature (15-28 days in vitro) cultures. Hippocampal neurons were imaged using a FV1000 spectral Olympus confocal microscope using a 60×1.2 NA water immersion objective. The experiments were conducted at room temperature in extracellular Tyrode solution containing (in mM): NaCl, 145; KCl, 3; glucose, 15; HEPES, 10; MgCl2, 1.2; CaCl2), 1.2; pH adjusted to 7.4 with NaOH. For FM-based imaging and analysis, activity-dependent FM1-43 (10 μM) styryl dye was used to estimate basal synaptic vesicle recycling using previously described protocol48. Briefly, action potentials were elicited by passing 50 mA constant current for 1 ms through two platinum wires, separated by ˜7 mm and close to the surface of the coverslip. The extracellular medium contained non-selective blocker of glutamate receptors (0.5 mM kynurenic acid) to block recurrent neuronal activity. 30 stimuli at 1 Hz were applied during FM1-43 loading, while 800 stimuli at 2 Hz during unloading. The fluorescence of individual synapses was determined from the difference between images obtained after staining and after destining (ΔF). Detection of signals was done using custom-written scripts in MATLAB (Mathworks) as described before48.
# [3] = tested on: primary hippocampal neurons; assay: mEPSCs & mIPSCs in cultured primary hippocampal neurons (wild type); assay type: cell-based, mouse; conditions: for effect on mEPSC frequency (in words) / effect on mIPSC frequency (in words): 250 nM each
# Experimental: mEPSCs & mIPSCs are measured in cultured primary hippocampal neurons at baseline and following acute application of agonists. Excitatory terminals selectively express the sushi domain-containing GABABR1a isoform (ref18), where it functions to inhibit neurotransmitter release (ref 24). Acute exposure of primary hippocampal neurons from wild type mice to 30μM baclofen, a GABABR agonist, or 250 nM sAPPα (Fc cleaved) reduces the frequency of miniature excitatory postsynaptic currents (mEPSCs) by 68% (FIG. 8 a,b) and 39% (FIG. 8 c,d), respectively, with no effect on mEPSC amplitude (FIG. 8e). […] Acute application of 30 μM baclofen or 250 nM purified sAPPα reduces the frequency of miniature inhibitory postsynaptic currents (mIPSCs) by 63% (FIG. 8a, 9a) and 44% (FIG. 8c, 9b), respectively, which is blocked by pretreatment with the GABABR antagonist CGP55845 (CGP, 5 μM) (FIG. 8f, 9d). Application of sAPPα causes a minor (14%) reduction on mIPSC amplitude (FIG. 8e, 9c). […] Baclofen is known to reduce the frequencies of mEPSCs and mIPSCs, which we have also confirmed. […] To confirm that the agonist is acting through GABABR1a, the agonist is tested in cultures with shRNA mediated knockdown of GABABR1a or antisense oligonucleotides mediated exon skipping of the exon encoding the Sushi domain 1 of GABABR1a. Antagonists are tested by treatment in combination with the agonist, Baclofen. […] As an antagonist we test an antibody against the sushi domain sequence (SEQ ID No: 5): […] SWTDMDTPSRCV. An antibody specifically binding to this domain which acts as an antagonist increases the frequencies of mEPSCs and mIPSCs. sAPPα also reduces mEPSC and mIPSC frequency in App/Aplp1 dKO cultures (FIG. 8j, 9f), excluding the possibility that sAPPα interferes with a complex of full-length APP and GABABR1 to exert its effect on GABABR signaling.
# Hippocampal neurons were cultured from E18 C57/B16 wild type mice or APP/APLP1 dKO mice (provided by Ulrike Muller46) and plated on poly-D-lysine (Millipore), and laminin (Invitrogen) coated coverslips (Nalge Nunc International). Neurons were maintained in Neurobasal medium (Invitrogen) supplemented with B27, glucose, glutamax, penicillin/streptomycin (Invitrogen) and 25 μM β-mercaptoethanol.
# Single neurons from wild type or APP/APLP1 null mutant embryos (E18) were recorded within the large neuronal network at DIV 12-15. The intracellular whole-cell pipette medium contained (in mM): 136 KCl, 18 HEPES, 4 Na-ATP, 4.6 MgCl2, 15 Creatine Phosphate, 1 EGTA and 50 U/ml Phospocreatine Kinase (300 mOsm, pH 7.30). Regular external solution contained 2 mM/2 mM Ca2+/Mg2+(in mM: 140 NaCl, 2.4 KCl, 2 CaCl2), 2 MgCl2, 10 HEPES, 14 Glucose (300 mOsm, pH 7.30)) and TTX (1 μM). Pharmacological reagents (30 μM baclofen, 5 μM CGP), sAPLP1, full length sAPP and sAPP derived peptides (250 nM each) were bath applied (dissolved in external medium described above) using a separate gravity driven application inlet. Recordings were done in whole cell voltage clamp configuration at −70 mV with a double EPC-10 amplifier (HEKA Elektronik) under control of Patchmaster v2×32 software (HEKA Elektronik). Currents were low-pass filtered at 3 kHz and stored at 20 kHz. Patch pipettes were pulled from borosilicate glass using a multi-step puller (P-1000; Sutter Instruments). Pipette resistance ranged from 3 to 5 MΩ and was compensated to 75-80%. Only cells with series resistances <15 MΩ were included in analysis. All recordings were done at room temperature. Spontaneous events were detected using Mini Analysis program (Synaptosoft). mEPSCs and mIPSCs were separated on the basis of their distinct decay kinetics, using a threshold of 5 ms47. Baseline was determined from an average of 60 sec of recordings prior to protein or drug treatment. Effect of treatment was determined from an average of 30 sec recordings after 140 sec of protein or drug treatment.
molecule,measurement,setting,value
"C[C@H](NC[C@H](O)CP(=O)(O)CC1CCCCC1)c1ccc(Cl)c(Cl)c1 [CGP54626, reference compound]",block of sAPPα effects on peak fEPSP amplitude and input/output slopes,[1]; 10 μM preincubation for 20 min before sAPPα,blocked
same,occlusion of sAPPα-induced augmentation of short-term facilitation,"[1]; 10 μM, 20, 50 and 100 Hz burst frequencies",occluded
same,occlusion of the sAPPα effect on presynaptic strength,[2],occluded
"DDSDVWWGGADTDYADG [17mer peptide, DDSDVWWGGADTDYADG]",effect on mEPSC frequency (in words),[3]; acute application,reduces mEPSC frequency to a similar degree as sAPPα
same,effect on mIPSC frequency (in words),[3]; acute application,reduce mIPSC frequency to a similar extent as sAPPα
"C[C@H](NC[C@H](O)CP(=O)(O)Cc1ccccc1)c1ccc(Cl)c(Cl)c1 [CGP55845, reference compound]",block of the reduction of mIPSC frequency,[3]; pretreatment with antagonist 5 μM,blocked
same,block of the sAPPα effect on mEPSC frequency,"[3]; pretreatment with antagonist 5 μM, then 250 nM sAPPα",blocks the effect of sAPPα on mEPSC frequency
"NCC(CC(=O)O)c1ccc(Cl)cc1 (stereo not shown) [baclofen, reference compound]",reduction of mEPSC frequency,[3]; 30 µM,68%
same,reduction of mIPSC frequency,[3]; 30 µM,63%
"sAPLP1: soluble ectodomain of APP-like protein 1 (protein, UniProt Q03157 39-584, looked up, extracellular domain) extracellular domain: NLAVGSPSAAEAPGSAQVAGLCGRLTLHRDLRTGRWEPDPQRSRRCLLDPQRVLEYCRQMYPELHIARVEQAAQAIPMERWCGGTRSGRCAHPHHEVVPFHCLPGEFVSEALLVPEGCRFLHQERMDQCESSTRRHQEAQEACSSQGLILHGSGMLLPCGSDRFRGVEYVCCPPPATPNPSGMAAGDPSTRSWPLGGRAEGGEDEEEVESFPQPVDDYFVEPPQAEEEEEEEEERAPPPSSHTPVMVSRVTPTPRPTDGVDVYFGMPGEIGEHEGFLRAKMDLEERRMRQINEVMREWAMADSQSKNLPKADRQALNEHFQSILQTLEEQVSGERQRLVETHATRVIALINDQRRAALEGFLAALQGDPPQAERVLMALRRYLRAEQKEQRHTLRHYQHVAAVDPEKAQQMRFQVQTHLQVIEERMNQSLGLLDQNPHLAQELRPQIQELLLAEHLGPSELDASVPGSSSEDKGSLQPPESKDDPPVTLPKGSTDQESSSSGREKLTPLEQYEQKVNASAPRGFPFHSSDIQRDELAPSGTGVSRE",effect on mEPSC frequency (in words),[3]; acute application,not
same,reduction of mIPSC frequency,"[3]; acute application, 30 μM baclofen, 250 nM proteins",17%
"ExD-AcD: extension domain-acidic domain fragment of APP695 (195-298aa), non-Fc protein used in ITC and functional assays (protein, left off: a dimerising Fc or GST; small tags and cut ends, extension domain-acidic domain fragment of APP695 (195-298aa), non-Fc protein used in ITC and functional assays) SVDSADAEEDDSDVWWGGADTDYADGGEDKVVEVAEEEEVADVEEEEADDDEDVEDGDEVEEEAEEPYEEATERTTSTATTTTTTTESVEEVVRVPTTAASTPD",effect on mEPSC frequency (in words),[3]; acute application,reduces mEPSC frequency to a similar degree as sAPPα
same,effect on mIPSC frequency (in words),[3]; acute application,reduce mIPSC frequency to a similar extent as sAPPα
